Assay [1] concerns SCA2.1 (DNA, aptamer) CTTACGACCTTAAGTGGGGTTCGGGTGGAGTTTATGGGGTCGTAAG
The assay can be described thus: Cy7 displacement, absorbance A670/A775. The conditions noted are these: Cy7 (2 µM) displaced from 3 µM SCA2.1.

The test system is the same in assay [2]. Briefly: ITC. The conditions noted are these: 20 mM NaCl, 0.5 mM MgCl2, 10 mM Tris-HCl pH 7.4, 23 °C; for KD: pure enantiomer, one-site model; for KD1: racemate, modified two-site model, site 1 of 2 (one enantiomer).
The test system is the same in assay [3]. The assay can be described thus: absorbance titration at 775 nm. The note with it: 20 mM NaCl, 0.5 mM MgCl2; 10 mM Tris-HCl pH 7.4, 0.01% Tween 20, 1% DMSO, room temperature; 2 µM Cy7.
Where [4] appears, read: highest concentration tested 50 µM.

SMILES strings stand for the structures.

With `CC(=O)Nc1ccc(O)cc1`, the binding result in assay [1] (setting [4]) was “no”.
In assay [2], `CCCC(C(=O)c1ccc2c(c1)OCO2)N1CCCC1` (stereo not drawn) yielded a KD of 3610 ± 120 nM.
In the case of `CCCC(C(=O)c1ccc2ccccc2c1)N1CCCC1` (stereo not drawn), the binding result in assay [1] (50 µM compound) is “yes”.
Same read-out and setting: in the case of `CCCC(NC)C(=O)c1ccc2c(c1)OCO2` (stereo not drawn) it was “yes”.
Molecule `CCC[C@H](C(=O)c1ccc2c(c1)OCO2)N1CCCC1` registered a KD in assay [2] of 46.5 ± 7.5 nM.
Take `CCN(CC)CC(=O)Nc1c(C)cccc1C`: the binding entry in assay [1] (setting [4]) is reported as “no”.
Molecule `CCN1C(=CC=CC=CC=Cc2sc3ccccc3[n+]2CC)Sc2ccccc21` gave a KD in assay [3] of 1600 nM.
On to `CCOC(=O)c1ccc(N)cc1`, for which the binding entry in assay [1] (setting [4]) is listed as “no”.
`CNC(C)C(=O)c1ccc(C)cc1` (stereo not drawn): the binding entry in assay [1] (50 µM compound) is recorded as “yes”.
On the same count and under the same terms, in the case of `CNC(C)C(=O)c1ccc(F)cc1` (stereo not drawn) it was “yes”; in that of `CNC(C)C(=O)c1ccc2c(c1)OCO2` (stereo not drawn), “yes”.
On the same count and under the same terms, under `CNC(C)C(=O)c1cccc(F)c1` (stereo not drawn) stands “yes”; under `CNC(C)C(=O)c1ccccc1` (stereo not drawn), “yes”.
With `CN[C@@H](C)[C@@H](O)c1ccccc1`, the binding entry in assay [1] (setting [4]) is recorded as “no”.
For `C[C@H](N)C(=O)c1ccccc1`, the binding result in assay [1] (50 µM compound) was “yes”.
As to `Cn1c(=O)c2c(ncn2C)n(C)c1=O`, the binding entry in assay [1] (setting [4]) is reported as “no”.
In the case of `OC[C@H]1O[C@@](CO)(O[C@H]2O[C@H](CO)[C@@H](O)[C@H](O)[C@H]2O)[C@@H](O)[C@@H]1O`, in assay [1] (setting [4]), the binding result is recorded as “no”.
`CCC(NC)C(=O)c1ccc2c(c1)OCO2` (racemic) came in with a KD1 in assay [2] of 0.16 ± 0.05 µM.
For the molecule `CCCC(C(=O)c1ccc2c(c1)OCO2)N1CCCC1` (racemic), the KD1 in assay [2] came out at 0.0175 ± 0.0164 µM.
In assay [2], `CCCC(C(=O)c1ccccc1)N1CCCC1` (racemic) displayed a KD1 of 0.09 ± 0.02 µM.
The same measure, in the same setting: under `CCNC(C)C(=O)c1ccc2c(c1)OCO2` (racemic) stands 0.10 ± 0.03 µM.

The KD is the concentration at which binding is half-saturated. Lower therefore signals higher affinity.

Source of the values: publication PMC6614805 (2019).
